DBAASP
In brackets after ≈: the same amount, converted by molar mass.

How the values were obtained:
Assay in all cases: ≥ marks a high value that may be exact or a test limit, other limits are often not marked, values filed in µg/mL are converted to µM
[1] = tested on: Bacillus anthracis
[2] = tested on: Bacillus cereus
[3] = tested on: Escherichia coli
[4] = tested on: Staphylococcus aureus
[5] = tested on: Escherichia coli BL21
[6] = tested on: Pseudomonas aeruginosa PAO1
[7] = tested on: Streptococcus pyogenes M1T1 5448
[8] = tested on: Staphylococcus aureus USA 300
[9] = tested on: Candida albicans NCYC 1467
[10] = tested on: Escherichia coli NCTC 10418
[11] = tested on: Pseudomonas aeruginosa ATCC 27853
[12] = tested on: Staphylococcus aureus ATCC 43300
[13] = tested on: Staphylococcus aureus NCTC 10788
[14] = tested on: Staphylococcus aureus NCTC 12493

Row | SMILES | MIC [5] [µM] | MIC [6] [µM] | MIC [7] [µM] | MIC [1] [µM] | MIC [2] [µM] | MIC [3] [µM] | MIC [4] [µM] | also measured
1 | CC(C)C[C@H](NC(=O)[C@H](CO)NC(=O)[C@H](CC(C)C)NC(=O)[C@H](Cc1ccccc1)NC(=O)[C@@H](NC(=O)[C@H](CO)NC(=O)[C@H](CO)NC(=O)[C@H](CCCN=C(N)N)NC(=O)[C@H](Cc1ccccc1)NC(=O)[C@@H](NC(=O)[C@@H](NC(=O)[C@@H]1CCCN1C(=O)[C@H](CO)NC(=O)[C@H](C)N)[C@@H](C)O)C(C)C)C(C)C)C(=O)N[C@@H](Cc1ccccc1)C(=O)N[C@H](C(=O)N[C@H](C(=O)N[C@@H](C)C(=O)N[C@@H](CCCCN)C(=O)N[C@@H](CCCCN)C(=O)O)C(C)C)C(C)C [ASPTVFRSSVFLSLFVVAKK] |  |  |  | ≥ 117 | ≥ 117 | > 117 | > 117 | 
2 | CC[C@H](C)[C@H](NC(=O)[C@@H](NC(=O)[C@H](C)NC(=O)[C@@H]1CCCN1C(=O)[C@H](Cc1ccccc1)NC(=O)[C@@H](NC(=O)[C@H](CCCCN)NC(=O)[C@H](CO)NC(=O)[C@H](C)NC(=O)[C@@H](NC(=O)[C@H](CCCN=C(N)N)NC(=O)[C@H](Cc1ccccc1)NC(=O)[C@H](CC(C)C)NC(=O)[C@H](C)NC(=O)CNC(=O)[C@@H](N)CC(C)C)C(C)C)C(C)C)C(C)C)C(=O)N[C@@H](CO)C(=O)N[C@@H](CCSC)C(=O)N[C@H](C(=O)N[C@@H](CCCCN)C(=O)O)C(C)C [LGALFRVASKVFPAVISMVK] |  |  |  | 30 (≈ 64 µg/mL) | 30 (≈ 64 µg/mL) | 120 (≈ 256 µg/mL) | 30 (≈ 64 µg/mL) | 
3 | CC(C)C[C@H](NC(=O)CNC(=O)[C@H](Cc1ccccc1)NC(=O)[C@H](CC(C)C)NC(=O)[C@@H](N)Cc1ccccc1)C(=O)N[C@@H](C)C(=O)N[C@@H](CO)C(=O)N[C@@H](CCCCN)C(=O)N[C@H](C(=O)N[C@@H](Cc1ccccc1)C(=O)N1CCC[C@H]1C(=O)N[C@@H](C)C(=O)N[C@H](C(=O)N[C@@H](Cc1ccc(O)cc1)C(=O)N[C@@H](CS)C(=O)N[C@@H](CCCCN)C(=O)N[C@H](C(=O)N[C@H](C(=O)N[C@@H](CCCN=C(N)N)C(=O)N[C@@H](CCCCN)C(=O)O)[C@@H](C)O)C(C)C)C(C)C)C(C)C [FLFGLASKVFPAVYCKVTRK] |  |  |  | ≥ 56.3 | ≥ 113 | 28.1 (≈ 64 µg/mL) | 113 (≈ 256 µg/mL) | 
4 | CC[C@H](C)[C@H](NC(=O)[C@H](CCC(=O)O)NC(=O)[C@H](CCCN=C(N)N)NC(=O)[C@H](CCCN=C(N)N)NC(=O)[C@H](CC(C)C)NC(=O)[C@H](Cc1ccc(O)cc1)NC(=O)[C@H](C)NC(=O)[C@H](CCCCN)NC(=O)[C@@H](NC(=O)[C@@H](NC(=O)[C@H](CCC(N)=O)NC(=O)[C@H](CCCN=C(N)N)NC(=O)CNC(=O)[C@H](C)N)[C@@H](C)O)[C@@H](C)CC)C(=O)N[C@@H](CCCN=C(N)N)C(=O)N[C@@H](CCCCN)C(=O)N[C@@H](CCCN=C(N)N)C(=O)NCC(=O)N[C@@H](CCCN=C(N)N)C(=O)N[C@@H](CCCCN)C(=O)N[C@@H](C)C(=O)N[C@H](C(=O)N[C@H](C(=O)N[C@@H](C)C(=O)N[C@@H](Cc1c[nH]c2ccccc12)C(=O)O)[C@@H](C)CC)C(C)C [AGRQTIKAYLRREIRKRGRKAVIAW] | 8 (≈ 24 µg/mL) | 16 (≈ 48 µg/mL) | 8 (≈ 24 µg/mL) |  |  |  |  | 
5 | CC[C@H](C)[C@H](NC(=O)[C@H](CC(C)C)NC(=O)[C@H](C)NC(=O)[C@@H]1CCCN1C(=O)[C@H](Cc1ccccc1)NC(=O)[C@@H](NC(=O)[C@H](CCCCN)NC(=O)[C@H](CO)NC(=O)[C@H](C)NC(=O)[C@@H](NC(=O)[C@H](CCCN=C(N)N)NC(=O)[C@H](Cc1ccccc1)NC(=O)[C@H](CC(C)C)NC(=O)[C@@H](N)Cc1ccccc1)C(C)C)C(C)C)C(=O)NCC(=O)N[C@@H](CCCCN)C(=O)N[C@@H](Cc1ccccc1)C(=O)N[C@@H](CCCCN)C(=O)N[C@@H](CCCCN)C(=O)N[C@@H](CCCCN)C(=O)O [FLFRVASKVFPALIGKFKKK] |  |  |  | 6.88 (≈ 16 µg/mL) | 6.88 (≈ 16 µg/mL) | 27.5 (≈ 64 µg/mL) | 6.88 (≈ 16 µg/mL) | 
6 | CSCC[C@H](NC(=O)[C@H](CC(=O)O)NC(=O)[C@@H](NC(=O)[C@@H](NC(=O)[C@H](C)NC(=O)[C@H](CC(N)=O)NC(=O)[C@H](CC(C)C)NC(=O)[C@@H](NC(=O)[C@H](C)NC(=O)[C@H](CCCCN)NC(=O)CNC(=O)[C@H](C)NC(=O)[C@H](C)NC(=O)[C@H](CCCCN)NC(=O)CNC(=O)[C@@H](NC(=O)[C@H](CC(N)=O)NC(=O)[C@H](CCCCN)NC(=O)[C@H](CC(C)C)NC(=O)[C@H](CC(C)C)NC(=O)[C@@H](NC(=O)[C@H](CCCCN)NC(=O)[C@H](Cc1c[nH]c2ccccc12)NC(=O)[C@H](CC(C)C)NC(=O)[C@H](C)N)[C@@H](C)O)C(C)C)C(C)C)C(C)C)[C@@H](C)O)C(=O)N[C@H](C(=O)N[C@@H](CC(N)=O)C(=O)N[C@@H](CCC(N)=O)C(N)=O)C(C)C [ALWKTLLKNVGKAAGKAVLNAVTDMVNQ] |  |  |  |  |  |  |  | MIC [9]: 5.42 µM (≈ 16 µg/mL); MIC [10]: 2.71 µM (≈ 8 µg/mL); MIC [11]: 5.42 µM (≈ 16 µg/mL); MIC [12]: 2.71 µM (≈ 8 µg/mL); MIC [13]: 2.71 µM (≈ 8 µg/mL); MIC [14]: 5.42 µM (≈ 16 µg/mL)
7 | CC[C@H](C)[C@H](NC(=O)[C@H](Cc1ccccc1)NC(=O)[C@H](C)NC(=O)[C@H](CCCCN)NC(=O)[C@H](CCCCN)NC(=O)CNC(=O)[C@H](CCCN=C(N)N)NC(=O)[C@H](CCCCN)NC(=O)[C@H](CCCN=C(N)N)NC(=O)[C@H](CC(C)C)NC(=O)[C@H](Cc1ccc(O)cc1)NC(=O)[C@H](CCC(=O)O)NC(=O)[C@H](CCCCN)NC(=O)[C@H](CC(C)C)NC(=O)[C@H](CCC(=O)O)NC(=O)[C@H](CC(C)C)NC(=O)[C@@H](NC(=O)[C@H](CC(C)C)NC(=O)[C@H](CCCCN)NC(=O)[C@H](CCC(N)=O)NC(=O)[C@H](CCCN=C(N)N)NC(=O)CNC(=O)[C@H](C)N)[C@@H](C)O)C(=O)N[C@@H](C)C(=O)N[C@@H](Cc1c[nH]c2ccccc12)C(=O)O [AGRQKLTLELKEYLRKRGKKAFIAW] | 16 (≈ 48.1 µg/mL) | 128 (≈ 385 µg/mL) | 4 (≈ 12 µg/mL) |  |  |  |  | 

Continued, in another order:

Row | MIC [5] [µM] | MIC [6] [µM] | MIC [7] [µM] | SMILES | MIC [1] [µM] | MIC [2] [µM] | MIC [3] [µM] | MIC [4] [µM] | also measured
8 | 16 (≈ 49 µg/mL) | > 128 | 0.25 (≈ 0.766 µg/mL) | CC[C@H](C)[C@H](NC(=O)[C@H](CCCN=C(N)N)NC(=O)[C@H](C)NC(=O)[C@H](CCCCN)NC(=O)[C@H](CCCCN)NC(=O)CNC(=O)[C@H](Cc1ccccc1)NC(=O)[C@H](CCCCN)NC(=O)[C@H](CCCN=C(N)N)NC(=O)[C@H](CC(C)C)NC(=O)[C@H](CCC(=O)O)NC(=O)[C@H](CCC(=O)O)NC(=O)[C@H](CCCCN)NC(=O)[C@H](CC(C)C)NC(=O)[C@H](Cc1ccc(O)cc1)NC(=O)[C@H](CC(C)C)NC(=O)[C@@H](NC(=O)[C@H](CC(C)C)NC(=O)[C@H](C)NC(=O)[C@H](CCC(N)=O)NC(=O)[C@H](CCCN=C(N)N)NC(=O)CNC(=O)[C@@H](N)Cc1c[nH]c2ccccc12)[C@@H](C)O)C(=O)N[C@@H](C)C(=O)N[C@@H](Cc1c[nH]c2ccccc12)C(=O)O [WGRQALTLYLKEELRKFGKKARIAW] |  |  |  |  | 
9 | 2 (≈ 6.17 µg/mL) | 16 (≈ 49.3 µg/mL) | 4 (≈ 12.3 µg/mL) | CC[C@H](C)[C@H](NC(=O)[C@H](Cc1c[nH]c2ccccc12)NC(=O)[C@H](CCC(N)=O)NC(=O)[C@H](CCCN=C(N)N)NC(=O)CNC(=O)[C@H](C)N)C(=O)N[C@@H](C)C(=O)N[C@@H](CCCCN)C(=O)N[C@@H](Cc1ccc(O)cc1)C(=O)N[C@@H](CC(C)C)C(=O)N[C@@H](CCCN=C(N)N)C(=O)N[C@@H](CCCN=C(N)N)C(=O)N[C@@H](CCC(=O)O)C(=O)N[C@H](C(=O)N[C@@H](CCCN=C(N)N)C(=O)N[C@@H](CCCCN)C(=O)N[C@@H](CCCN=C(N)N)C(=O)NCC(=O)N[C@@H](CCCN=C(N)N)C(=O)N[C@@H](CCCCN)C(=O)N[C@@H](C)C(=O)N[C@H](C(=O)N[C@H](C(=O)N[C@@H](C)C(=O)N[C@@H](Cc1c[nH]c2ccccc12)C(=O)O)[C@@H](C)CC)C(C)C)[C@@H](C)CC [AGRQWIAKYLRREIRKRGRKAVIAW] |  |  |  |  | MIC [8]: ≥ 128 µM
10 | 0.25 (≈ 0.764 µg/mL) | 8 (≈ 24.4 µg/mL) | 0.5 (≈ 1.53 µg/mL) | CC[C@H](C)[C@H](NC(=O)[C@H](CCCN=C(N)N)NC(=O)CNC(=O)[C@@H](NC(=O)[C@H](CCCCN)NC(=O)[C@H](CCCN=C(N)N)NC(=O)[C@@H](NC(=O)[C@H](Cc1ccc(O)cc1)NC(=O)[C@H](CCCN=C(N)N)NC(=O)[C@H](CCCN=C(N)N)NC(=O)[C@H](CC(C)C)NC(=O)[C@H](CCC(=O)O)NC(=O)[C@H](CCCCN)NC(=O)[C@H](C)NC(=O)[C@@H](NC(=O)[C@H](CCCN=C(N)N)NC(=O)[C@H](CC(N)=O)NC(=O)[C@@H](NC(=O)[C@H](CCCCN)NC(=O)[C@H](C)N)[C@@H](C)O)[C@@H](C)CC)[C@@H](C)CC)C(C)C)C(=O)N[C@@H](C)C(=O)N[C@@H](CCCN=C(N)N)C(=O)N[C@@H](CCCCN)C(=O)N[C@@H](C)C(=O)N[C@@H](Cc1c[nH]c2ccccc12)C(=O)O [AKTNRIAKELRRYIRKVGRIARKAW] |  |  |  |  | 
